Measurements taken from patent US20220193081A1 (Ellamed IP & Services PTE. LTD., priority 2019, published 2022).

Assay: HPLC assay on storage of sildenafil citrate with equal concentration of sucralose in pH adjusted 50% ethanol (Example 2)
Assay type: physicochemical
Details: for Impurity B / Impurity D / sildenafil assay: 25° C., Day 285
Protocol: At room temperature, a phosphate buffer was prepared by weighing 3.9 g of NaH2PO4.2H2O into a 500 mL volumetric flask and adding approximately 300 mL of purified water until the phosphate fully dissolved. The pH was then adjusted to 7 with the introduction of NaOH and dilute to the requisite volume by the further addition of purified water.
A 50% ethanol mixture was prepared by introducing either purified water, taken from a MilliQ™ unit or phosphate buffer, to equivalent volumes of Ph.Eur. grade absolute alcohol. The pH of the resultant mixture was then adjusted by using either NaOH 1N solutions and/or Sodium Citrate 1N solutions to reach predetermined pH values.
Samples of sucralose were then dissolved in the pH adjusted 50% ethanol, whilst stirred with a magnetic stirrer and a needle, to a predetermined concentration. […] After preparation, the solutions were each filtered through PDVF 0.22 micro filter of 13 mm in size and placed in polypropylene containers of adequate volume.
Before being placed on storage, and at time points 7 and 42 days, the concentration of sildenafil in the mixture was assayed using HPLC. The samples were then stored at either −20° C., 2-8° C. or 25° C. for periods of up to 42 days. Periodically, the samples were visually inspected for evidence of precipitation or crystallization. […]
The samples of 21 mg/ml at a pH of 5.6 were maintained in stability testing at 25° C. for a total of 285 days.

[1] = 21 mg/ml, pH 5.6, Sodium Citrate

CCCc1nn(C)c2c(=O)nc(-c3cc(S(=O)(=O)N4CCN(C)CC4)ccc3OCC)[nH]c12.O=C(O)CC(O)(CC(=O)O)C(=O)O [sildenafil citrate, 1-[[3-(4,7-Dihydro-1-methyl-7-oxo-3-propyl-1H-pyrazolo[4,3-d]pyrimidin-5-yl)-4-ethoxyphenyl]sulfonyl]-4-methylpiperazine citrate salt]
concentration of sildenafil by HPLC (15 mg/ml, pH 5.0, Sodium Citrate, 2-8 ° C., Day 7): 11050 µg/mL
concentration of sildenafil by HPLC (15 mg/ml, pH 5.0, Sodium Citrate, 25 ° C., Day 7): 14890 µg/mL
concentration of sildenafil by HPLC (15 mg/ml, pH 5.0, Sodium Citrate, Day 0): 15220 µg/mL
concentration of sildenafil by HPLC (15 mg/ml, pH 5.2, NaOH, 2-8 ° C., Day 7): 14990 µg/mL
concentration of sildenafil by HPLC (15 mg/ml, pH 5.2, NaOH, 25 ° C., Day 7): 15010 µg/mL
concentration of sildenafil by HPLC (15 mg/ml, pH 5.2, NaOH, Day 0): 15050 µg/mL
concentration of sildenafil by HPLC (15 mg/ml, pH 5.24, NaOH, 50% ethanol/phosphate buffer, 2-8 ° C., Day 7): 14970 µg/mL
concentration of sildenafil by HPLC (15 mg/ml, pH 5.24, NaOH, 50% ethanol/phosphate buffer, 25 ° C., Day 7): 15010 µg/mL
concentration of sildenafil by HPLC (15 mg/ml, pH 5.24, NaOH, 50% ethanol/phosphate buffer, Day 0): 15060 µg/mL
concentration of sildenafil by HPLC (15 mg/ml, pH 5.6, NaOH, 2-8 ° C., Day 7): 15030 µg/mL
concentration of sildenafil by HPLC (15 mg/ml, pH 5.6, NaOH, 2-8 ° C., Day 42): 15050 µg/mL
concentration of sildenafil by HPLC (15 mg/ml, pH 5.6, NaOH, 25 ° C., Day 7): 14930 µg/mL
concentration of sildenafil by HPLC (15 mg/ml, pH 5.6, NaOH, 25 ° C., Day 42): 14970 µg/mL
concentration of sildenafil by HPLC (15 mg/ml, pH 5.6, NaOH, 50% ethanol/phosphate buffer, 2-8 ° C., Day 7): 14920 µg/mL
concentration of sildenafil by HPLC (15 mg/ml, pH 5.6, NaOH, 50% ethanol/phosphate buffer, 25 ° C., Day 7): 14940 µg/mL
concentration of sildenafil by HPLC (15 mg/ml, pH 5.6, NaOH, 50% ethanol/phosphate buffer, Day 0): 14960 µg/mL
concentration of sildenafil by HPLC (15 mg/ml, pH 5.6, NaOH, Day 0): 15140 µg/mL
concentration of sildenafil by HPLC (15 mg/ml, pH 5.6, Sodium Citrate, 2-8 ° C., Day 7): 14800 µg/mL
concentration of sildenafil by HPLC (15 mg/ml, pH 5.6, Sodium Citrate, 2-8 ° C., Day 42): 15040 µg/mL
concentration of sildenafil by HPLC (15 mg/ml, pH 5.6, Sodium Citrate, 25 ° C., Day 7): 14790 µg/mL
concentration of sildenafil by HPLC (15 mg/ml, pH 5.6, Sodium Citrate, 25 ° C., Day 42): 14880 µg/mL
concentration of sildenafil by HPLC (15 mg/ml, pH 5.6, Sodium Citrate, Day 0): 14920 µg/mL
concentration of sildenafil by HPLC (15 mg/ml, pH 6.01, NaOH, 50% ethanol/phosphate buffer, 2-8 ° C., Day 7): 14690 µg/mL
concentration of sildenafil by HPLC (15 mg/ml, pH 6.01, NaOH, 50% ethanol/phosphate buffer, 25 ° C., Day 7): 14830 µg/mL
concentration of sildenafil by HPLC (15 mg/ml, pH 6.01, NaOH, 50% ethanol/phosphate buffer, Day 0): 14830 µg/mL
concentration of sildenafil by HPLC (15 mg/ml, pH 6.2, NaOH, 2-8 ° C., Day 7): 10420 µg/mL
concentration of sildenafil by HPLC (15 mg/ml, pH 6.2, NaOH, 25 ° C., Day 7): 11750 µg/mL
concentration of sildenafil by HPLC (15 mg/ml, pH 6.2, NaOH, Day 0): 15140 µg/mL
concentration of sildenafil by HPLC (15 mg/ml, pH 6.2, Sodium Citrate, 2-8 ° C., Day 7): 11110 µg/mL
concentration of sildenafil by HPLC (15 mg/ml, pH 6.2, Sodium Citrate, 25 ° C., Day 7): 12100 µg/mL
concentration of sildenafil by HPLC (15 mg/ml, pH 6.2, Sodium Citrate, Day 0): 14750 µg/mL
concentration of sildenafil by HPLC (18 mg/ml, pH 5.2, NaOH, 2-8 ° C., Day 7): 17890 µg/mL
concentration of sildenafil by HPLC (18 mg/ml, pH 5.2, NaOH, 25 ° C., Day 7): 17930 µg/mL
concentration of sildenafil by HPLC (18 mg/ml, pH 5.2, NaOH, Day 0): 18230 µg/mL
concentration of sildenafil by HPLC (18 mg/ml, pH 5.2, Sodium Citrate, Day 0): 18090 µg/mL
concentration of sildenafil by HPLC (18 mg/ml, pH 5.3, NaOH, 50% ethanol/phosphate buffer, 2-8 ° C., Day 7): 18050 µg/mL
concentration of sildenafil by HPLC (18 mg/ml, pH 5.3, NaOH, 50% ethanol/phosphate buffer, 25 ° C., Day 7): 18070 µg/mL
concentration of sildenafil by HPLC (18 mg/ml, pH 5.3, NaOH, 50% ethanol/phosphate buffer, Day 0): 18070 µg/mL
concentration of sildenafil by HPLC (18 mg/ml, pH 5.6, NaOH, 2-8 ° C., Day 7): 17860 µg/mL
concentration of sildenafil by HPLC (18 mg/ml, pH 5.6, NaOH, 2-8 ° C., Day 42): 18070 µg/mL
concentration of sildenafil by HPLC (18 mg/ml, pH 5.6, NaOH, 25 ° C., Day 7): 17860 µg/mL
concentration of sildenafil by HPLC (18 mg/ml, pH 5.6, NaOH, 25 ° C., Day 42): 18070 µg/mL
concentration of sildenafil by HPLC (18 mg/ml, pH 5.6, NaOH, Day 0): 18130 µg/mL
concentration of sildenafil by HPLC (18 mg/ml, pH 5.6, Sodium Citrate, 2-8 ° C., Day 7): 17820 µg/mL
concentration of sildenafil by HPLC (18 mg/ml, pH 5.6, Sodium Citrate, 2-8 ° C., Day 42): 17880 µg/mL
concentration of sildenafil by HPLC (18 mg/ml, pH 5.6, Sodium Citrate, 25 ° C., Day 7): 17820 µg/mL
concentration of sildenafil by HPLC (18 mg/ml, pH 5.6, Sodium Citrate, 25 ° C., Day 42): 17910 µg/mL
concentration of sildenafil by HPLC (18 mg/ml, pH 5.6, Sodium Citrate, Day 0): 18190 µg/mL
concentration of sildenafil by HPLC (18 mg/ml, pH 5.63, NaOH, 50% ethanol/phosphate buffer, 2-8 ° C., Day 7): 18010 µg/mL
concentration of sildenafil by HPLC (18 mg/ml, pH 5.63, NaOH, 50% ethanol/phosphate buffer, 25 ° C., Day 7): 18040 µg/mL
concentration of sildenafil by HPLC (18 mg/ml, pH 5.63, NaOH, 50% ethanol/phosphate buffer, Day 0): 18180 µg/mL
concentration of sildenafil by HPLC (18 mg/ml, pH 6.0, Sodium Citrate, 2-8 ° C., Day 7): 14950 µg/mL
concentration of sildenafil by HPLC (18 mg/ml, pH 6.0, Sodium Citrate, 25 ° C., Day 7): 15080 µg/mL
concentration of sildenafil by HPLC (18 mg/ml, pH 6.0, Sodium Citrate, Day 0): 17760 µg/mL
concentration of sildenafil by HPLC (21 mg/ml, pH 5.29, NaOH, 50% ethanol/phosphate buffer, 2-8 ° C., Day 7): 20970 µg/mL
concentration of sildenafil by HPLC (21 mg/ml, pH 5.29, NaOH, 50% ethanol/phosphate buffer, 25 ° C., Day 7): 20980 µg/mL
concentration of sildenafil by HPLC (21 mg/ml, pH 5.29, NaOH, 50% ethanol/phosphate buffer, Day 0): 20940 µg/mL
concentration of sildenafil by HPLC (21 mg/ml, pH 5.5, NaOH, 2-8 ° C., Day 7): 20860 µg/mL
concentration of sildenafil by HPLC (21 mg/ml, pH 5.5, NaOH, 25 ° C., Day 7): 20970 µg/mL
concentration of sildenafil by HPLC (21 mg/ml, pH 5.5, NaOH, Day 0): 21110 µg/mL
concentration of sildenafil by HPLC (21 mg/ml, pH 5.5, Sodium Citrate, 2-8 ° C., Day 7): 21140 µg/mL
concentration of sildenafil by HPLC (21 mg/ml, pH 5.5, Sodium Citrate, 25 ° C., Day 7): 21220 µg/mL
concentration of sildenafil by HPLC (21 mg/ml, pH 5.5, Sodium Citrate, Day 0): 21320 µg/mL
concentration of sildenafil by HPLC (21 mg/ml, pH 5.6, NaOH, 2-8 ° C., Day 7): 21040 µg/mL
concentration of sildenafil by HPLC (21 mg/ml, pH 5.6, NaOH, 2-8 ° C., Day 42): 21430 µg/mL
concentration of sildenafil by HPLC (21 mg/ml, pH 5.6, NaOH, 25 ° C., Day 7): 21020 µg/mL
concentration of sildenafil by HPLC (21 mg/ml, pH 5.6, NaOH, 25 ° C., Day 42): 21320 µg/mL
Impurity B (21 mg/ml, pH 5.6, NaOH): 0.00
Impurity D (21 mg/ml, pH 5.6, NaOH): 0.02
sildenafil assay (21 mg/ml, pH 5.6, NaOH): 21.16
concentration of sildenafil by HPLC (21 mg/ml, pH 5.6, NaOH, 50% ethanol/phosphate buffer, 2-8 ° C., Day 7): 20930 µg/mL
concentration of sildenafil by HPLC (21 mg/ml, pH 5.6, NaOH, 50% ethanol/phosphate buffer, 25 ° C., Day 7): 20990 µg/mL
concentration of sildenafil by HPLC (21 mg/ml, pH 5.6, NaOH, 50% ethanol/phosphate buffer, Day 0): 20970 µg/mL
concentration of sildenafil by HPLC (21 mg/ml, pH 5.6, NaOH, Day 0): 21200 µg/mL
concentration of sildenafil by HPLC (21 mg/ml, pH 5.6, Sodium Citrate, 2-8 ° C., Day 7): 20990 µg/mL
concentration of sildenafil by HPLC (21 mg/ml, pH 5.6, Sodium Citrate, 2-8 ° C., Day 42): 21410 µg/mL
concentration of sildenafil by HPLC (21 mg/ml, pH 5.6, Sodium Citrate, 25 ° C., Day 7): 21060 µg/mL
concentration of sildenafil by HPLC (21 mg/ml, pH 5.6, Sodium Citrate, 25 ° C., Day 42): 21270 µg/mL
Impurity B [1]: 0.01
Impurity D [1]: 0.02
sildenafil assay [1]: 21.14
concentration of sildenafil by HPLC (21 mg/ml, pH 5.6, Sodium Citrate, Day 0): 21260 µg/mL
concentration of sildenafil by HPLC (21 mg/ml, pH 5.8, NaOH, 2-8 ° C., Day 7): 20950 µg/mL
concentration of sildenafil by HPLC (21 mg/ml, pH 5.8, NaOH, 25 ° C., Day 7): 21730 µg/mL
concentration of sildenafil by HPLC (21 mg/ml, pH 5.8, NaOH, Day 0): 21150 µg/mL
concentration of sildenafil by HPLC (21 mg/ml, pH 5.8, Sodium Citrate, 2-8 ° C., Day 7): 20960 µg/mL
concentration of sildenafil by HPLC (21 mg/ml, pH 5.8, Sodium Citrate, 25 ° C., Day 7): 21070 µg/mL
concentration of sildenafil by HPLC (21 mg/ml, pH 5.8, Sodium Citrate, Day 0): 21080 µg/mL
concentration of sildenafil by HPLC (21 mg/ml, pH 6.01, NaOH, 50% ethanol/phosphate buffer, 2-8 ° C., Day 7): 16220 µg/mL
concentration of sildenafil by HPLC (21 mg/ml, pH 6.01, NaOH, 50% ethanol/phosphate buffer, 25 ° C., Day 7): 18020 µg/mL
concentration of sildenafil by HPLC (21 mg/ml, pH 6.01, NaOH, 50% ethanol/phosphate buffer, Day 0): 20770 µg/mL
breakdown products (any of the conditions tested, up to 42 days): No breakdown products were identified
